Test results reported in PMC7661526, “Antibiofilm effects of N,O-acetals derived from 2-amino-1,4-naphthoquinone are associated with downregulation of important global virulence regulators in methicillin-resistant Staphylococcus aureus” (Scientific Reports, 2020).
Converted amounts (≈) assume the structure as drawn. Read-outs that look alike come from different tables or passages of the source.

Experiments:
S. aureus ATCC 25923 [1] = assay: MIC, broth microdilution; format: cell-based, Staphylococcus aureus
Excerpt: (§1) Strain representatives of six globally spread clones/lineages of MRSA were used in this study to test the antimicrobial activity of the N,O-acetal derivatives against MRSA: NY/Japan-USA100/ST5-SCCmecII (strain CR15-071), USA300/ST8-SCCmecIV (strain USA300-0114), USA400/ST1-SCCmecIV (strain USA400-0051), Brazilian epidemic clone-BEC/ST239-SCCmecIII (strain BMB9393), pediatric clone-USA800/ST5-SCCmecIV (strain USA800-0179), and OSPC-USA1100/ST30-SCCmecIV (strain 07-040). The S. aureus ATCC 25923 was used as a control for the experiment of drug susceptibility. […] For biofilm production, tryptic soy broth (TSB; BD, Franklin Lakes, NJ, USA) was supplemented with 1% (w/v) glucose (TSB-Glu). Tryptic soy agar (TSA; BD) was used for bacterial growth. The Mueller-Hinton broth (MHB; BD) and Mueller-Hinton agar (MHA; BD) was used for susceptibility tests. All strains were maintained in 10% (v/v) glycerol stocks and stored at − 80 °C.
(§2) The antibacterial activity of 6a and its derivatives 7a, 7b, and 7c was tested as previously described using paper disks impregnated with each compound[13]. The derivatives were also analyzed quantitatively using microdilution assays in 96-well inert polystyrene microtiter plates (Nuclon; Nalge Nunc International, Rochester, NY, USA) to determine the minimal inhibitory concentration (MIC)[14]. Biological control, as well as growth conditions, were performed following CLSI recommendation[15],[16]. […] Controls were also performed using 2% (v/v) DMSO only.

MRSA BEC (BMB9393) = assay: microbe, parasite or virus in culture; format: cell-based, Staphylococcus aureus
Experimental: (§3) For biofilm production, tryptic soy broth (TSB; BD, Franklin Lakes, NJ, USA) was supplemented with 1% (w/v) glucose (TSB-Glu). Tryptic soy agar (TSA; BD) was used for bacterial growth. The Mueller-Hinton broth (MHB; BD) and Mueller-Hinton agar (MHA; BD) was used for susceptibility tests. All strains were maintained in 10% (v/v) glycerol stocks and stored at − 80 °C.
as §2, with “The” for “The antibacterial activity of 6a and its derivatives 7a, 7b, and 7c was tested as previously described using paper disks impregnated with each compound[13]. The”

[2] = system: MRSA NY/Japan-USA100 (CR15-071); assay: MIC, broth microdilution; format: cell-based, Staphylococcus aureus
Experimental: as §3
as §2, with “The” for “The antibacterial activity of 6a and its derivatives 7a, 7b, and 7c was tested as previously described using paper disks impregnated with each compound[13]. The”

[3] = system: MRSA OSPC-USA1100 (07-040); assay: MIC, broth microdilution; format: cell-based, Staphylococcus aureus
Experimental: as §3
as §2, with “The” for “The antibacterial activity of 6a and its derivatives 7a, 7b, and 7c was tested as previously described using paper disks impregnated with each compound[13]. The”

[4] = system: MRSA Pediatric-USA800 (USA800-0179); assay: MIC, broth microdilution; format: cell-based, Staphylococcus aureus
Experimental: as §3
as §2, with “The” for “The antibacterial activity of 6a and its derivatives 7a, 7b, and 7c was tested as previously described using paper disks impregnated with each compound[13]. The”

[5] = system: MRSA USA300 (USA300-0114); assay: MIC, broth microdilution; format: cell-based, Staphylococcus aureus
Experimental: as §3
as §2, with “The” for “The antibacterial activity of 6a and its derivatives 7a, 7b, and 7c was tested as previously described using paper disks impregnated with each compound[13]. The”

[6] = system: MRSA USA400 (USA400-0051); assay: MIC, broth microdilution; format: cell-based, Staphylococcus aureus
Experimental: as §3
as §2, with “The” for “The antibacterial activity of 6a and its derivatives 7a, 7b, and 7c was tested as previously described using paper disks impregnated with each compound[13]. The”

S. aureus ATCC 25923 [7] = assay: Disk diffusion test; format: cell-based, Staphylococcus aureus
Excerpt: as §1, §2

[8] = system: MRSA ST239-SCCmecIII (BMB9393); assay: Disk diffusion test; format: cell-based, Staphylococcus aureus
[9] = system: MRSA ST5-SCCmecII (USA100); assay: Disk diffusion test; format: cell-based, Staphylococcus aureus
[10] = system: MRSA ST8-SCCmecIV (USA300); assay: Disk diffusion test; format: cell-based, Staphylococcus aureus
[11] = system: MRSA (ST1-SCCmecIV) (USA400); assay: Disk diffusion test; format: cell-based, Staphylococcus aureus
[12] = system: MRSA ST30-SCCmecIV (USA1100); assay: Disk diffusion test; format: cell-based, Staphylococcus aureus
[13] = system: MRSA ST5-SCCmecIV (USA800); assay: Disk diffusion test; format: cell-based, Staphylococcus aureus
Cytotoxicity assay (MTT) = settings: African green monkey, Vero cell monolayers
Experimental: (§4) Plates were incubated for 1 h, the supernatant again removed, and 200 µL dimethyl sulfoxide (DMSO) were added to each well to dissolve the formazan crystals for 10 min. Absorbance was measured at 570 nm using an ELISA reader (Thermo Plate, TP-READER, Thermo Fisher Scientific). […] The selectivity index (SI) was calculated as follows: SI (µg/mL) = CC50/MIC[17]. Three independent experiments were performed in triplicate. Controls were performed using 2% (v/v) DMSO only.

Hemocompatibility assay = settings: human, pH 7.4
Experimental: (§5) Erythrocytes were collected from three human volunteers in a citrate tube and washed three times (3×) with PBS (pH 7.4). All derivatives were incubated with the PBS-erythrocyte suspension for 3 h at 37 °C. The hemolysis with the release of hemoglobin was quantified by the spectrophotometric reading of the supernatant at 545 nm. Hemolysis less than 10% represented hemocompatibility and non-toxicity against erythrocyte membranes. For the positive control, the human erythrocytes were lysed with 1% (v/v) Triton X-100. The negative control was performed with 1% (v/v) DMSO only (final concentration). […] All methods were carried out in accordance with relevant guidelines and regulations. In addition, informed consent was obtained from all volunteers. Three independent experiments were performed in triplicate.

[14] = system: MRSA strain BMB9393 biofilm; assay: Biofilm development on polystyrene, crystal violet; format: cell-based, Staphylococcus aureus; settings: 1/4MIC (6a 32 µg/mL, 7a 64 µg/mL, vancomycin 0.5 µg/mL); strain BMB9393
Experimental: Biofilms were formed on polystyrene surfaces using the BEC representative, strain BMB9393. […] The same volume of the bacterial culture in TSB-Glu (37 °C/18 h; at 250 rpm) diluted 1/100 in the same broth was added to the wells. After incubation (37 °C/24 h), supernatants were gently removed, rinsed with distilled water, and treated with crystal violet solution as described. […] Eight independent tests with three replicates each were performed. Controls were inoculated with the same bacterial inoculum but using only TSB-Glu with 2% (v/v) DMSO, final concentration.

Vero cell line = assay: Cytotoxicity assay (MTT); settings: Vero cells, 24 h, MTT
Experimental: as §4

human erythrocytes = assay: Hemocompatibility assay; settings: highest concentration evaluated (300 µg/mL), 3 h at 37 °C
Experimental: as §5

[15] = system: MRSA strain CR15-071 (USA100) cells persistent to vancomycin; assay: Vancomycin-persistent cells, high bacterial load on TSA plates; format: cell-based, Staphylococcus aureus; settings: vancomycin alone, 4MIC (8 µg/mL) plates, high inoculum
Experimental: For this test, we choose the MRSA strain CR15-071 representative of the ST5-SCCmecII lineage (NY/Japan-USA100 clone), since this MRSA has replaced the ST239-SCCmecIII (the Brazilian clone) in this country, and is now the most frequent MRSA lineage in Brazilian hospitals. […]. The plates were incubated at 37 °C/24 h before being examined. […]. Bacterial growth was determined by removing persistent cells from the plates and determining UFC/ml. Controls were also performed using 2% (v/v) DMSO only. Three independent experiments were performed in triplicate.

[16] = Table 2, used for SI, strain not given, values of 6a-7c equal those for BEC (BMB9393)

| Structure (SMILES) | MIC (MRSA BEC (BMB9393); [16]) [µg/mL] | Inhibition zone (S. aureus ATCC 25923 [7]) [mm] | Inhibition zone [8] [mm] | Inhibition zone [9] [mm] | Inhibition zone [10] [mm] | Inhibition zone [11] [mm] | Inhibition zone [12] [mm] | Inhibition zone [13] [mm] | Effect on biofilm development [14] | further results |
| --- | --- | --- | --- | --- | --- | --- | --- | --- | --- | --- |
| NC1=CC(=O)c2ccccc2C1=O [6a, 2-amino-1,4-naphthoquinone] | 128 (≈ 739 µM) | 9±1.4 | 8±2.0 | 9±1.0 | 9±1.0 | 8±1.2 | 10±0.5 | 8±1.0 | much less effective at reducing biofilm development compared with 7b or 7c | MIC (S. aureus ATCC 25923 [1]; Staphylococcus aureus, ATCC25923, control strain S. aureus ATCC 25923, read-out: MIC): 32 µg/mL (≈ 185 µM); MIC (MRSA BEC (BMB9393); Staphylococcus aureus, MRSA): 128 µg/mL (≈ 739 µM); MIC ([2]; Staphylococcus aureus): 256 µg/mL (≈ 1480 µM); MIC ([3]; Staphylococcus aureus, MRSA): 256 µg/mL (≈ 1480 µM); MIC ([4]; Staphylococcus aureus): 128 µg/mL (≈ 739 µM); MIC ([5]; Staphylococcus aureus): 256 µg/mL (≈ 1480 µM); MIC ([6]; Staphylococcus aureus): 128 µg/mL (≈ 739 µM); CC50 at 24 h (Cytotoxicity assay (MTT)): 97.3 ± 3.12 µg/mL (≈ 562 µM); hemolysis at 3 h, 300 µg/mL (Hemocompatibility assay; human erythrocyte suspension): 3 ± 0.9% |
| COCNC1=CC(=O)c2ccccc2C1=O [7a, 2-(methoxymethyl)-amino-1,4-naphthoquinone] | 256 (≈ 1180 µM) | 9.7±2.0 | 10±1.5 | 12±1.0 | 14±1.0 | 13±2.0 | 13±1.0 | 12±1.0 | much less effective at reducing biofilm development compared with 7b or 7c | MIC (S. aureus ATCC 25923 [1]; control strain S. aureus ATCC 25923): 128 µg/mL (≈ 589 µM); MIC (MRSA BEC (BMB9393); broth microdilution, BEC (BMB9393)): 256 µg/mL (≈ 1180 µM); MIC ([2]; broth microdilution, NY/Japan-USA100 (CR15-071)): 256 µg/mL (≈ 1180 µM); MIC ([3]; broth microdilution, OSPC-USA1100 (07-040)): 256 µg/mL (≈ 1180 µM); MIC ([4]; broth microdilution, Pediatric-USA800 (USA800-0179)): 256 µg/mL (≈ 1180 µM); MIC ([5]; broth microdilution, USA300 (USA300-0114)): 128 µg/mL (≈ 589 µM); MIC ([6]; broth microdilution, USA400 (USA400-0051)): 128 µg/mL (≈ 589 µM); CC50 (Vero cell line): 155.28 ± 1.03 µg/mL (≈ 715 µM); Hemolysis, maximum values (human erythrocytes): 3.10 ± 0.1% |
| CN[C@H](CC(C)C)C(=O)N[C@H]1C(=O)N[C@@H](CC(N)=O)C(=O)N[C@H]2C(=O)N[C@H]3C(=O)N[C@H](C(=O)N[C@H](C(=O)O)c4cc(O)cc(O)c4-c4cc3ccc4O)[C@H](O)c3ccc(c(Cl)c3)Oc3cc2cc(c3O[C@@H]2O[C@H](CO)[C@@H](O)[C@H](O)[C@H]2O[C@H]2C[C@](C)(N)[C@H](O)[C@H](C)O2)Oc2ccc(cc2Cl)[C@H]1O [Vancomycin, vancomycin, reference compound] |  | 13±1.0 | 14±1.0 | 16±1.5 | 17±1.0 | 16±2.0 | 16±1.5 | 17±1.5 | not able to reduce biofilm development | hemolysis at 3 h (Hemocompatibility assay): 3.6 ± 0.8%; Refractory/persistent cells recovered [15]: 4.5 × 10^8 CFU/mL |
